Like-named read-outs stand apart in the source and are kept apart here.
Assays:
[1] = pKa measurement of lipid with TNS fluorescent probe; type: physicochemical
From the text: This is done with all eight buffers.

BHK cells = assay: BHK expression; type: cell-based; details: liposomes incubated with BHK cells overnight
Procedure: Liposomes with different lipids were incubated with BHK cells overnight and assessed for protein expression potency. From a baseline with RV05 lipid expression could be increased 18× by adding 10% 1,2-diphytanoyl-sn-glycero-3-phosphoethanolamine (DPyPE) to the liposome, 10× by adding 10% 18:2 (cis) phosphatidylcholine, and 900× by instead using RV01.

RSV F protein = assay: Total IgG titers against F protein after replicon delivery in liposomes with alternative cationic lipids; type: in vivo; details: cationic lipid of RV01 liposomes replaced; 2wp1 and 2wp2
From the text: These liposomes were also used to deliver a replicon encoding full-length RSV F protein. Total IgG titers against F protein two weeks after the first dose (2wp1) are plotted against pKa in FIG. 16. The best results are seen where the pKa is where the cationic lipid has a pKa between 5.7-5.9, but pKa alone is not enough to guarantee a high titer e.g. the lipid must still support liposome formation.
The cationic lipid in RV01 liposomes (DLinDMA) was replaced by RV16, RV17, RV18 or RV19.

[2] = probe 6-(p-toluidino)-2-naphthalenesulfonic acid (TNS), lipid alone, TNS fluorescence method, read-out: pKa of cationic lipid

| SMILES | pKa [1, 2] | further results |
| --- | --- | --- |
| CCCCC/C=C\C/C=C\CCCCCCCCOCC(CN(C)C)OCCCCCCCC/C=C\C/C=C\CCCCC (centres unmarked) [RV01, 1,2-dilinoleyloxy-N,N-dimethyl-3-aminopropane, reference compound] | ~5.8 | increase of protein expression from a baseline with RV05 lipid (BHK cells): 900 × |
| CCCCC/C=C\C/C=C\CCCCCCCCNC(=O)C(CN(C)C)NC(=O)CCCCCCC/C=C\C/C=C\CCCCC (centres unmarked) | 6.1 | – |
| CCCCCCCC/C=C\CCCCCCCCNC(=O)C(CN(C)C)NC(=O)CCCCCCC/C=C\CCCCCCCC (centres unmarked) [RV17] | 6.1 | – |
| CCCCCCCC/C=C\CCCCCCCC(=O)N[C@@H](CCNC(=N)N)C(=O)NCCCCCCCCCCCCCCCC [RV02] | > 9 | – |
| CCCCCCCC/C=C\CCCCCCCCOCC(C[N+](C)(C)C)OCCCCCCCC/C=C\CCCCCCCC.[Cl-] (centres unmarked) [RV19] | – | Total IgG titers (FIG. 17) (RSV F protein): lowest results |
| CCCCC/C=C\C/C=C\CCCCCCCCOCC(CN1CCC(C)(C)C1)OCCOCCO[C@H]1CC[C@@]2(C)C(=CC[C@H]3[C@@H]4CC[C@H]([C@H](C)CCCC(C)C)[C@@]4(C)CC[C@@H]32)C1 (some centres unmarked) [RV05] | – | pKa [1]: ~5.8 |
| CCCCC/C=C\C/C=C\CCCCCCCCOCC(CN1CCCC1C)OCCOCCOCCNC(=O)O[C@H]1CC[C@@]2(C)C(=CC[C@H]3[C@@H]4CC[C@H]([C@H](C)CCCC(C)C)[C@@]4(C)CC[C@@H]32)C1 (some centres unmarked) [RV12] | – | pKa [1]: 7 |
